The target of one series is nsp14 N7-MTase. As to conditions: read-out: IC50 nsp14 N7-MTase activity; cited from earlier work.
Another series deals with SAR-CoV. As to conditions: cited from earlier work.
Series [1] addresses T1, SARS-CoV-2 nsp14 (Severe acute respiratory syndrome coronavirus 2, UniProt P0DTD1). The series can be described thus: Nsp14 RapidFire MS high-throughput screening assay. It is filed as biochemical.
In series [2] the target is human homolog RNA RNMT (RNMT:RAM) (Homo sapiens, UniProt O43148). The series can be described thus: RNMT assay under similar conditions to the nsp14 RapidFire assay. The format is biochemical.
human homolog RNA RNMT (RNMT:RAM), sequence (O43148 whole entry): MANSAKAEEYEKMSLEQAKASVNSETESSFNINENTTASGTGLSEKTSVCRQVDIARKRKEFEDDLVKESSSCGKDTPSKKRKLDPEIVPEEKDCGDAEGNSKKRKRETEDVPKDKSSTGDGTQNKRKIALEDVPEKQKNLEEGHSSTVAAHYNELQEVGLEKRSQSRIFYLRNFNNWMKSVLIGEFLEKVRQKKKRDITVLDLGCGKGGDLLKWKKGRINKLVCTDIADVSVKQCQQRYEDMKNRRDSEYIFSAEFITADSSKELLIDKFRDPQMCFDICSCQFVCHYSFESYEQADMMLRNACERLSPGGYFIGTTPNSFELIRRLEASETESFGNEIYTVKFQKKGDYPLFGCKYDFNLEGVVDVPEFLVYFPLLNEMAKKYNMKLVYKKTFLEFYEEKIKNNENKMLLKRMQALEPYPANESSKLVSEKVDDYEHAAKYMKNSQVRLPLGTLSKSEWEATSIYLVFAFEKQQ
human homolog RNA RNMT (RNMT:RAM), sequence (Q9BTL3 1-90 partner limits assumed): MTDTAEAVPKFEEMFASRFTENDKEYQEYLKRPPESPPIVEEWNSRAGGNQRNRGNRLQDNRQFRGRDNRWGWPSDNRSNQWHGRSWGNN
Series [3] has as its target T1, SARS-CoV-2 nsp14. The series can be described thus: biochemical. It is filed as biochemical.
For a further series, the system named is SARS-CoV-2. As to conditions: read-out: EC50 blocking SARS-CoV-2 in vitro infections; cited from earlier work.
For series [4] the following is noted: humans; with minimal gastrointestinal side effects; cited from earlier work.
For series [5] the following is noted: hydrolysis to the active metabolite tizoxanide; cited from earlier work.

For the compound `Nc1ncnc2c1ncn2[C@@H]1O[C@H](CSCC[C@H](N)C(=O)O)[C@@H](O)[C@H]1O` [S-adenosyl-L-homocysteine], the IC50 (usually the point on the concentration scale where inhibition reaches its midpoint) at nsp14 N7-MTase is 16 µM.

For `O=C(O)C1=CC(=C(c2ccc(O)c(C(=O)O)c2)c2ccc(O)c(C(=O)O)c2)C=CC1=O` [aurintricarboxylic acid], at nsp14 N7-MTase, the IC50 was 6.4 µM. The “effect on SAR-CoV replication in infected cells” value in the series on SAR-CoV is reported as “limit SAR-CoV replication in infected cells”.

With `O=c1c(O)c(-c2ccc(O)cc2)oc2cc(O)cc(O)c12` [kaempferol], on SARS-CoV-2 nsp14 [1], the midpoint of inhibition, the IC50, lay at 28 µM.

`CC(=O)Oc1ccccc1C(=O)Nc1ncc([N+](=O)[O-])s1` [nitazoxanide]: on SARS-CoV-2 nsp14 [1] (read-out: maximal effect, dose response, top concentration 100 µM), the Emax at 100 µM turned out to be 89.7%. Moreover, the values for the IC50 (in series [2]; against SARS-CoV-2 nsp14 [3]) were above 100 µM and 132 µM, respectively. The “inhibition of N7-guanosine cap methylation” value on SARS-CoV-2 nsp14 [3] is on record as “Forty-nine”. In addition, the “shift in activity between cap MTase assay and primary biochemical assay” value on SARS-CoV-2 nsp14 [3] (orthogonal versus RapidFire assay) is recorded as 10 fold. Further, the EC50 (usually the concentration giving half of the maximal effect) in the series with SARS-CoV-2 is 2.12 µM. The tolerated single dose entry in series [4] is recorded as “up to 4 g”. In series [5], the “metabolic fate following oral administration” value is “rapidly hydrolyzed”.

On to `O=C1C=CC(=O)N1c1cccc(F)c1` [N-(3-fluorophenyl)maleimide], for which the “percentage effect on nsp14 activity” value at SARS-CoV-2 nsp14 [1] (single concentration of 10 µM) is reported as “greater than 50%”.

The compound `O=C(Nc1ncc([N+](=O)[O-])s1)c1ccccc1O` [tizoxanide] came in with an IC50 on SARS-CoV-2 nsp14 [1] of 54.8 µM.

Values taken from article PMC7967019 (Slas Discovery, 2022).
